In ChEMBL document CHEMBL4507280 (2021):

What was measured:
[1] = tested on: Tyrosine-protein kinase ABL1 (Homo sapiens), P00519 [F317I]; conditions: Compound concentration 1000.0 nM
[2] = molecular target: Mitogen-activated protein kinase kinase kinase 6 (Homo sapiens) (UniProt O95382); conditions: Compound concentration 1000.0 nM
[3] = molecular target: Aurora kinase C (Homo sapiens) (UniProt Q9UQB9); conditions: Compound concentration 1000.0 nM
[4] = molecular target: Calcium/calmodulin-dependent protein kinase type II subunit alpha (Homo sapiens) (UniProt Q9UQM7); conditions: Compound concentration 1000.0 nM
[5] = molecular target: Dual specificity protein kinase CLK2 (Homo sapiens) (UniProt P49760); conditions: Compound concentration 1000.0 nM
Chain of Dual specificity protein kinase CLK2 (Homo sapiens) (P49760 whole entry, looked up): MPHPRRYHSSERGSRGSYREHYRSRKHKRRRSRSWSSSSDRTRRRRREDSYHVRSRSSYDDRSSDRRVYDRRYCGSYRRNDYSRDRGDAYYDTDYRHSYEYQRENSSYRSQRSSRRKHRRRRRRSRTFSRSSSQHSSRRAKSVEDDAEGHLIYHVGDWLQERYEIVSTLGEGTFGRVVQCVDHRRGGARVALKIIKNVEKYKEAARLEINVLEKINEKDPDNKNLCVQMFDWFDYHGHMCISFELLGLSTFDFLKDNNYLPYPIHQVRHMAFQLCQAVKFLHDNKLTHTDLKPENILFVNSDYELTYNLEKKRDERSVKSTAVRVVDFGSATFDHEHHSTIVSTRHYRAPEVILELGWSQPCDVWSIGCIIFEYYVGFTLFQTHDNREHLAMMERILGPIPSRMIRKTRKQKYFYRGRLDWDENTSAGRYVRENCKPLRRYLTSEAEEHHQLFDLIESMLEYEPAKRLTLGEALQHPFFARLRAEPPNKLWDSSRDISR

[6] = molecular target: Macrophage colony-stimulating factor 1 receptor (Homo sapiens) (UniProt P07333); conditions: Compound concentration 1000.0 nM
[7] = molecular target: Casein kinase I isoform gamma-3 (Homo sapiens) (UniProt Q9Y6M4); conditions: Compound concentration 1000.0 nM
[8] = tested on: Epidermal growth factor receptor (Homo sapiens), P00533 [T790M]; conditions: Compound concentration 1000.0 nM
[9] = molecular target: Mitogen-activated protein kinase 7 (Homo sapiens) (UniProt Q13164); conditions: Compound concentration 1000.0 nM
[10] = tested on: Receptor-type tyrosine-protein kinase FLT3 (Homo sapiens), P36888 [K663Q]; conditions: Compound concentration 1000.0 nM
[11] = molecular target: G protein-coupled receptor kinase 4 (Homo sapiens) (UniProt P32298); conditions: Compound concentration 1000.0 nM
[12] = molecular target: Inhibitor of nuclear factor kappa-B kinase subunit beta (Homo sapiens) (UniProt O14920); conditions: Compound concentration 1000.0 nM
[13] = molecular target: Interleukin-1 receptor-associated kinase 3 (Homo sapiens) (UniProt Q9Y616); conditions: Compound concentration 1000.0 nM
[14] = tested on: Mast/stem cell growth factor receptor Kit (Homo sapiens), P10721 [D816H]; conditions: Compound concentration 1000.0 nM
[15] = molecular target: Mitogen-activated protein kinase kinase kinase kinase 2 (Homo sapiens) (UniProt Q12851); conditions: Compound concentration 1000.0 nM
Chain of Mitogen-activated protein kinase kinase kinase kinase 2 (Homo sapiens) (Q12851 whole entry): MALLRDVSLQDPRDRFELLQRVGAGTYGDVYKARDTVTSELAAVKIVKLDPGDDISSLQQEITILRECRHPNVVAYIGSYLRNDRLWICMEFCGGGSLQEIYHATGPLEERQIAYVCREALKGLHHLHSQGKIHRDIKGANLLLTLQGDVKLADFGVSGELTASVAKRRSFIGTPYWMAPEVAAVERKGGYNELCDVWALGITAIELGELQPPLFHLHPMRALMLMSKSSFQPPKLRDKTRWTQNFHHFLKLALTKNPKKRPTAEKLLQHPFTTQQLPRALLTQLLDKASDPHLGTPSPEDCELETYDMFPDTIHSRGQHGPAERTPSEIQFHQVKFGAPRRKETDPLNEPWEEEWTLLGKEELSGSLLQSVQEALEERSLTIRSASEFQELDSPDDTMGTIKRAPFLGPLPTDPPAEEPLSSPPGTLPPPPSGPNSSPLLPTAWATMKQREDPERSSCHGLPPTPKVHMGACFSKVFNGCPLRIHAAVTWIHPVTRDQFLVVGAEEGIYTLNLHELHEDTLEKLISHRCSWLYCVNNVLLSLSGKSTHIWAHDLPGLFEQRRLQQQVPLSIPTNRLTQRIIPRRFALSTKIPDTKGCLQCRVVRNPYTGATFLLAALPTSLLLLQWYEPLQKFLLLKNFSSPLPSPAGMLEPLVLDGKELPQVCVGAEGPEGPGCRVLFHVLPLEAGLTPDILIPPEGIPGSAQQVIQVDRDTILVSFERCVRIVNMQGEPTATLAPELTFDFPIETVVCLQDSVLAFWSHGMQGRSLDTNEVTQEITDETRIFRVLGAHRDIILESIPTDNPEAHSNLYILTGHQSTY

[16] = molecular target: Dual specificity mitogen-activated protein kinase kinase 6 (Homo sapiens) (UniProt P52564); conditions: Compound concentration 1000.0 nM
Chain of Dual specificity mitogen-activated protein kinase kinase 6 (Homo sapiens) (P52564 whole entry): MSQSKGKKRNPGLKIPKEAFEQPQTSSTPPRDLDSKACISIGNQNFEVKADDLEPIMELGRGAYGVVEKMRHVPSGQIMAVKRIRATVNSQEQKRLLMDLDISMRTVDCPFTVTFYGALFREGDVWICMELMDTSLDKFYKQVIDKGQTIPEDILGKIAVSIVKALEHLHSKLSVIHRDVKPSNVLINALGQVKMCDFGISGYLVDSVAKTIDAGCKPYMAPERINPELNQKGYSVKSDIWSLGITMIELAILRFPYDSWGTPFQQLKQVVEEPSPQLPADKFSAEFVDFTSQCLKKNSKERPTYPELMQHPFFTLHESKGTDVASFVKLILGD

[17] = tested on: Hepatocyte growth factor receptor (Homo sapiens), P08581 [M1250T]; conditions: Compound concentration 1000.0 nM
[18] = molecular target: Serine/threonine-protein kinase 3 (Homo sapiens) (UniProt Q13188); conditions: Compound concentration 1000.0 nM
Chain of Serine/threonine-protein kinase 3 (Homo sapiens) (Q13188 whole entry): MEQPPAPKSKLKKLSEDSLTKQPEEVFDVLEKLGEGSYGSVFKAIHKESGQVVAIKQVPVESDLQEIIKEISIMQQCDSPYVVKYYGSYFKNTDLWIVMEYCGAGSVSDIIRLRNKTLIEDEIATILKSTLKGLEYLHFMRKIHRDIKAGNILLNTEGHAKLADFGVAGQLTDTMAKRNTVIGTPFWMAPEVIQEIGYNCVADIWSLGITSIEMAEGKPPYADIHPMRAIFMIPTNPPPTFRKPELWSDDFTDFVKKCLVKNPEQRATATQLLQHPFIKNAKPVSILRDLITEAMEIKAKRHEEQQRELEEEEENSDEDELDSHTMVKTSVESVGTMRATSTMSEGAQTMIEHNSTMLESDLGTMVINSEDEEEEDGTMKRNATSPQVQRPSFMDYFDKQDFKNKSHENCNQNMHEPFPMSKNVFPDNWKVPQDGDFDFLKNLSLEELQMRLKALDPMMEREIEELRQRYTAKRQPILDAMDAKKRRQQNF

[19] = molecular target: Muscle, skeletal receptor tyrosine-protein kinase (Homo sapiens) (UniProt O15146); conditions: Compound concentration 1000.0 nM
[20] = molecular target: Serine/threonine-protein kinase Nek10 (Homo sapiens) (UniProt Q6ZWH5); conditions: Compound concentration 1000.0 nM
Chain of Serine/threonine-protein kinase Nek10 (Homo sapiens) (Q6ZWH5 whole entry): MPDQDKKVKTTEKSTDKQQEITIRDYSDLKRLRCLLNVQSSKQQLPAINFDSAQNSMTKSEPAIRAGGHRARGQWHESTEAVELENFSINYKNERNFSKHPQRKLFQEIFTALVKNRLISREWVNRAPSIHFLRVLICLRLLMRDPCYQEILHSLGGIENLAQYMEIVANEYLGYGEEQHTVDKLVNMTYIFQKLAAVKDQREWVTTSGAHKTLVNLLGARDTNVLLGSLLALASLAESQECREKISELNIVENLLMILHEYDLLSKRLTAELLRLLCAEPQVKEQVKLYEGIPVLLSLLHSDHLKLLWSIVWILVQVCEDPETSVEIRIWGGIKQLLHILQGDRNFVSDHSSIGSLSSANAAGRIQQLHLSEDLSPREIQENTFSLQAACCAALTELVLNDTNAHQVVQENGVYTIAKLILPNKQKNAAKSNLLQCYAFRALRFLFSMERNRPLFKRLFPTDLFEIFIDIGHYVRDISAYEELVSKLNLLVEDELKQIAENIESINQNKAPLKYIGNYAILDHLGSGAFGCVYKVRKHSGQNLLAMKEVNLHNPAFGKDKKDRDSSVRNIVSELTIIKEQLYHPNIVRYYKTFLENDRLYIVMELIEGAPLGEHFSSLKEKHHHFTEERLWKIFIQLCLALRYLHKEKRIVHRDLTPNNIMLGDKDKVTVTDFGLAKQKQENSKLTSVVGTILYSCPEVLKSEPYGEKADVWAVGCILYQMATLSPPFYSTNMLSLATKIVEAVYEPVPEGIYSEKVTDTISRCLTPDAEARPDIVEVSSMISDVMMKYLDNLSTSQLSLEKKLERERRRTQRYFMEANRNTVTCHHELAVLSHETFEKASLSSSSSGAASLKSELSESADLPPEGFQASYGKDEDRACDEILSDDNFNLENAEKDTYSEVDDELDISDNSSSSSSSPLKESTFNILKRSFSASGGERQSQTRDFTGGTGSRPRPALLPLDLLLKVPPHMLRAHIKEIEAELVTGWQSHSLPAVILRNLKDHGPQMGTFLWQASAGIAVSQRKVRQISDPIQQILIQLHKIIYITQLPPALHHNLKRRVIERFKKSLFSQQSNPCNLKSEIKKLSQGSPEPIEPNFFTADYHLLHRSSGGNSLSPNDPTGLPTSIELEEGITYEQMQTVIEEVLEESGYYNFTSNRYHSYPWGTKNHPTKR

[21] = molecular target: Serine/threonine-protein kinase Nek7 (Homo sapiens) (UniProt Q8TDX7); conditions: Compound concentration 1000.0 nM
[22] = molecular target: Phosphatidylinositol 4,5-bisphosphate 3-kinase catalytic subunit alpha isoform (Homo sapiens) (UniProt P42336); conditions: Compound concentration 1000.0 nM
[23] = molecular target: Serine/threonine-protein kinase pim-2 (Homo sapiens) (UniProt Q9P1W9); conditions: Compound concentration 1000.0 nM
[24] = molecular target: Serine/threonine-protein kinase PLK2 (Homo sapiens) (UniProt Q9NYY3); conditions: Compound concentration 1000.0 nM
Chain of Serine/threonine-protein kinase PLK2 (Homo sapiens) (Q9NYY3 whole entry, looked up): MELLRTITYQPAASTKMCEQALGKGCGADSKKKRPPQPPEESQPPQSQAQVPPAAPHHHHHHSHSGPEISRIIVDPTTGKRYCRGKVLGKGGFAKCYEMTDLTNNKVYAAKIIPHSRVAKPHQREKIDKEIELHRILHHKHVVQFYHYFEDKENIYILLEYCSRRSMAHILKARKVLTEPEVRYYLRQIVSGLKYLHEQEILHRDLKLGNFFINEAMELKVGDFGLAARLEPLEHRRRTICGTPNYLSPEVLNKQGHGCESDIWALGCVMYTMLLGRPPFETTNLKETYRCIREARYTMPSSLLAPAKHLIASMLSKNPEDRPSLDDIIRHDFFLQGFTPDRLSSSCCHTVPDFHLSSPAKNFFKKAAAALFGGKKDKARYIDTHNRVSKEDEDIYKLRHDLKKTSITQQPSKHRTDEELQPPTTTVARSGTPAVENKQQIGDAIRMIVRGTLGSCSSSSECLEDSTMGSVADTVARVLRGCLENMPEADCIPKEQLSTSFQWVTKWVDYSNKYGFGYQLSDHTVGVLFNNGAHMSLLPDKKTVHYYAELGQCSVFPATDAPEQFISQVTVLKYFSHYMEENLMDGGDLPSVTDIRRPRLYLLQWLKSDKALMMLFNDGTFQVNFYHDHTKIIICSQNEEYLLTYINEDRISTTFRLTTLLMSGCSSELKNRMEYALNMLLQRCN

[25] = molecular target: Serine/threonine-protein kinase D1 (Homo sapiens) (UniProt Q15139); conditions: Compound concentration 1000.0 nM
[26] = molecular target: cGMP-dependent protein kinase 2 (Homo sapiens) (UniProt Q13237); conditions: Compound concentration 1000.0 nM
[27] = molecular target: Serine/threonine-protein kinase ULK2 (Homo sapiens) (UniProt Q8IYT8); conditions: Compound concentration 1000.0 nM
Chain of Serine/threonine-protein kinase ULK2 (Homo sapiens) (Q8IYT8 whole entry): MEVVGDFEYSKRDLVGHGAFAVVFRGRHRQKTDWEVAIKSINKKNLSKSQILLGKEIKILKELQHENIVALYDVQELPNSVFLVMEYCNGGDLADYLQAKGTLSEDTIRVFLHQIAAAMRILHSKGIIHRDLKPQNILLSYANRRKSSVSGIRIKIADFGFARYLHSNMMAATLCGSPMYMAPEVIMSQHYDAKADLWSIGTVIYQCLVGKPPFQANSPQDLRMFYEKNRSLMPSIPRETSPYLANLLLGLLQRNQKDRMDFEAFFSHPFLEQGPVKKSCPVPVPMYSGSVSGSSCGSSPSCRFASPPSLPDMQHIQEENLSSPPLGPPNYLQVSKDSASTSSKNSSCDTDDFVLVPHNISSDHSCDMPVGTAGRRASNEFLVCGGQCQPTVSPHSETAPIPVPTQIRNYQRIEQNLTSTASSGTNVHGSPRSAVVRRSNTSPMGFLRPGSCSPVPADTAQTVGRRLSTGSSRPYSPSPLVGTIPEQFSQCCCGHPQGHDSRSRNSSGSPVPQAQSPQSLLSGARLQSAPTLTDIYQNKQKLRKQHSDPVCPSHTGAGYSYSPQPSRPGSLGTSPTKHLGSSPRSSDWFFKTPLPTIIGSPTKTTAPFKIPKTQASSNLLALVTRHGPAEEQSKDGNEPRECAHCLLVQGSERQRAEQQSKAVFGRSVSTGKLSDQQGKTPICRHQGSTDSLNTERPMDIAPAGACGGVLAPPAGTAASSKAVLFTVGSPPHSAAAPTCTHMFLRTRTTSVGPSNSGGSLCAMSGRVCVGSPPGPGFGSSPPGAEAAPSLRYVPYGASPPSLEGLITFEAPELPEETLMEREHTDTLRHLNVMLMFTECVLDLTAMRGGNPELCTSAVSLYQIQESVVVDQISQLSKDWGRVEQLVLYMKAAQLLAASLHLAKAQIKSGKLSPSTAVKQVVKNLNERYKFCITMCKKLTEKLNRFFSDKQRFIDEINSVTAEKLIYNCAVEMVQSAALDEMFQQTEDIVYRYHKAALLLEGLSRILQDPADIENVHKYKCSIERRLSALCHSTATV

[28] = molecular target: Wee1-like protein kinase 2 (Homo sapiens) (UniProt P0C1S8); conditions: Compound concentration 1000.0 nM
[29] = molecular target: Serine/threonine-protein kinase WNK2 (Homo sapiens) (UniProt Q9Y3S1); conditions: Compound concentration 1000.0 nM
[30] = molecular target: 5-hydroxytryptamine receptor 2C (Homo sapiens) (UniProt P28335); conditions: Compound concentration 10.0 uM
[31] = molecular target: T1, Alpha-1B adrenergic receptor (Homo sapiens) (UniProt P35368); conditions: Compound concentration 10.0 uM
T1 sequence (whole entry): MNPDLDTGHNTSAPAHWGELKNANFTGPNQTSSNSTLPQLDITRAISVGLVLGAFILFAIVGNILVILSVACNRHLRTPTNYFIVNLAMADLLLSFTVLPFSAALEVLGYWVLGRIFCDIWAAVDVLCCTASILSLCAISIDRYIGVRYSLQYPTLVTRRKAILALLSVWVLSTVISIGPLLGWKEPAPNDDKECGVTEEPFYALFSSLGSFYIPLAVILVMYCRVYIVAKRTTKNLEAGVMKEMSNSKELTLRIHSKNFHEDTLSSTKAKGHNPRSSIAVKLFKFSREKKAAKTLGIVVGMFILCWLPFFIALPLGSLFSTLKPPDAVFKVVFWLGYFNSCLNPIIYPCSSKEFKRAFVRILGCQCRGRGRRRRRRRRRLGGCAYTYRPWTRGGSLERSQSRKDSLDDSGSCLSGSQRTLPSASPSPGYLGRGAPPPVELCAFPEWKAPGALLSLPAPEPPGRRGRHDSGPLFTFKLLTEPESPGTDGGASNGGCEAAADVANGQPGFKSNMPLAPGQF

[32] = molecular target: GABA-A receptor; anion channel (Rattus norvegicus) (UniProt O09028+P15431+P18506+P18508+P19969+P20236+P23574+P23576+P28471+P28473+P30191+P62813+P63079+P63138+Q91ZM7+Q9ES14); conditions: Compound concentration 10.0 uM

CCC(=O)N[C@@H]1CC[C@H](C(=O)N(C)c2ccc(-c3nc4ccccc4o3)cc2)C1 [BI 99990]
inactive: residual activity [1] 76% | residual activity [2] 75% | residual activity [3] 100% | residual activity [4] 100% | residual activity [5] 100% | residual activity [6] 88% | residual activity [7] 100% | residual activity [8] 96% | residual activity [9] 100% | residual activity [10] 100% | residual activity [11] 100% | residual activity [12] 100% | residual activity [13] 100% | residual activity [14] 100% | residual activity [15] 100% | residual activity [16] 100% | residual activity [17] 100% | residual activity [18] 100% | residual activity [19] 100% | residual activity [20] 100% | residual activity [21] 100% | residual activity [22] 88% | residual activity [23] 100% | residual activity [24] 100% | residual activity [25] 98% | residual activity [26] 92% | residual activity [27] 100% | residual activity [28] 100% | residual activity [29] 92% | inhibition [30] 5.92% | inhibition [31] -6.47% | inhibition [32] 40.3%

CCC(=O)N[C@H]1CC[C@@H](C(=O)N(C)c2ccc(-c3nc4ccccc4o3)cc2)C1 [BI 99179]
inactive: residual activity [1] 86% | residual activity [2] 76% | residual activity [3] 100% | residual activity [4] 94% | residual activity [5] 95% | residual activity [6] 93% | residual activity [7] 99% | residual activity [8] 87% | residual activity [9] 78% | residual activity [10] 88% | residual activity [11] 100% | residual activity [12] 90% | residual activity [13] 85% | residual activity [14] 85% | residual activity [15] 96% | residual activity [16] 100% | residual activity [17] 92% | residual activity [18] 100% | residual activity [19] 100% | residual activity [20] 80% | residual activity [21] 98% | residual activity [22] 94% | residual activity [23] 100% | residual activity [24] 96% | residual activity [25] 100% | residual activity [26] 100% | residual activity [27] 75% | residual activity [28] 96% | residual activity [29] 74% | inhibition [30] 8.87% | inhibition [31] -6.32% | inhibition [32] 23.2%
